Experimental data reported in article PMC7504051, “Ilimaquinone Induces the Apoptotic Cell Death of Cancer Cells by Reducing Pyruvate Dehydrogenase Kinase 1 Activity” (International Journal of Molecular Sciences, 2020).

How the values were obtained:
[1] = biological target: T1, pyruvate dehydrogenase kinase 1 (PDK1) (Homo sapiens, UniProt Q15118); test: radiolabelled (α-32P)ATP binding to bead-bound purified PDK1, scintillation counting, unlabelled ATP as competitor
T1 construct: His-tagged PDK1

[2] = biological target: T1, pyruvate dehydrogenase kinase 1 (PDK1); test: isothermal titration calorimetry (MicroCal AutoITC200); supported by (α-32P)ATP displacement from purified PDK1; assay type: binding

T1 sequence (Q15118 29-436): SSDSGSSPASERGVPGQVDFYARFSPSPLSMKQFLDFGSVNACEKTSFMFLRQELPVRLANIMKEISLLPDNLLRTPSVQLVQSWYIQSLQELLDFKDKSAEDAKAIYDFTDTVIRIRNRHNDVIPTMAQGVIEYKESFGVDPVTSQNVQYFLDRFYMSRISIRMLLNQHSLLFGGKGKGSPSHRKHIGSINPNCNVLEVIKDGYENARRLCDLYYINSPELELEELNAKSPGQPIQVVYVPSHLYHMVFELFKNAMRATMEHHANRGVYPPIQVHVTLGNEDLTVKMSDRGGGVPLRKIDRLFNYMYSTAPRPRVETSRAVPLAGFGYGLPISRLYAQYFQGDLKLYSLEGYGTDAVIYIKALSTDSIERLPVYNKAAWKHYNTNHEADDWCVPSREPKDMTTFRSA

Row | Kd [2] [µM] | SMILES | radiolabelled (α-32P)ATP binding to bead-bound purified PDK1, scintillation coun [1]
1 |  | Nc1ncnc2c1ncn2[C@@H]1O[C@H](COP(=O)(O)OP(=O)(O)OP(=O)(O)O)[C@@H](O)[C@H]1O [ATP] | The binding of ATP to PDK1 in the presence of IQ was determined using α^32-labeled ATP.
2 | 14.6 | C=C1CCC[C@H]2[C@](C)(CC3=C(O)C(=O)C=C(OC)C3=O)[C@@H](C)CC[C@]12C [IQ, ilimaquinone] | 
